Measured values reported in patent US20230181614A1, “ADMINISTRATION OF CITICOLINE TO IMPROVE COGNITIVE PERFORMANCE, ATTENTIONAL PERFORMANCE, AND MOTOR FUNCTION” (KYOWA HAKKO BIO CO., LTD., priority 2014, published 2023).
Values joined by “and” are separate entries in the source; they are usually repeats but may differ in a detail not shown here. Equal entries are not always repeated.

Columns and labels:
[1] = test system: Healthy subjects, ages 13-18; assay: California Verbal Learning Test I and II (CVLT); format: in vivo, human; conditions: for CVLT I & II List A Long Delay V1, Mean / CVLT I & II List A Short Delay V1, Mean / CVLT I & II List A Trial 1 V1, Mean / CVLT I & II List A Trial 5 V1, Mean / CVLT I & II List A Trials 1-5 V1, Mean / CVLT I & II List B V1, Mean: Visit 1; for V3-V1 CVLT I & II Difference List A Long Delay, Mean / V3-V1 CVLT I & II Difference List A Short Delay, Mean / V3-V1 CVLT I & II Difference List A Trial 1, Mean / V3-V1 CVLT I & II Difference List A Trial 5, Mean / V3-V1 CVLT I & II Difference List A Trials 1-5, Mean / V3-V1 CVLT I & II Difference List B Trial 1, Mean: Visit difference score; for CVLT I & II List A Long Delay V3, Mean / CVLT I & II List A Short Delay V3, Mean / CVLT I & II List A Trial 1 V3, Mean / CVLT I & II List A Trial 5 V3, Mean / CVLT I & II List A Trials 1-5 V3, Mean / CVLT I & II List B V3, Mean: Visit 3
Excerpt: Study participants were screened by telephone prior to study enrollment. Healthy subjects, ages 13-18, with no significant medical conditions and no history of co-morbid psychiatric disorder, current Axis I or II diagnosis, or previous participation in a pharmacotherapeutic trial, were selected. Use of any psychotropic medication or any previous head injury resulting in loss of consciousness for 5 or more minutes were used as exclusion criteria. While no participant met criteria for a neuropsychiatric disorder at enrollment, clinical assessments were still completed throughout the study to evaluate changes in mood state. In addition, self-reports of sleep habits, lifestyle, and exercise routines were also administered at baseline as well as at each study visit to assess changes in health habits during study participation. Following the completion of Visit 1 assessment, participants were given their 28-day supply of citicoline (250 mg or 500 mg) or placebo, which was randomly assigned. They were instructed to take one capsule a day every day for the next 28 days. Visit 2 occurred fourteen days after Visit 1. At Visit 2, the remaining study pills were counted and participant dosage calendars were checked to ensure compliance with the protocol. Additional neuropsychological measures and clinical assessments were administered during this visit. Participants returned for Visit 3 fourteen days later, on the 28th day of their study participation. The pill bottle and the dosage calendar were collected from each participant. Urine and blood were again obtained. Participants also participated in similar clinical and neuropsychological testing and clinical measures that were given during visit 1. […] Subjects are asked to remember a 16-item word list, which is presented on five trials. After each trial, the subject is asked to recall all of the words that they can remember. A second list is then presented to provide an interference condition. The subject is then asked to recall the first word list. After a temporal delay, the subject is again asked to recall the first word list. Test results provide scores for assessing verbal learning, strength of memory following interfering tasks, proactive interference, accuracy of recognition memory and storage versus retrieval of newly learned information. The CVLT was administered at all three visits.

[2] = test system: Healthy subjects, ages 13-18; assay: Stroop Color Word Test; format: in vivo, human; set-up: unit not given here; conditions: for Stroop Color Trial V1, Mean / Stroop Difference V1, Mean / Stroop Interference Trial V1, Mean / Stroop Word Trial V1, Mean: Visit 1; for V3-V1 Stroop Color Trial, Mean / V3-V1 Stroop Difference, Mean / V3-V1 Stroop Interference Trial, Mean / V3-V1 Stroop Word Trial, Mean: Visit difference score; for Stroop Color Trial V3, Mean / Stroop Difference V3, Mean / Stroop Interference Trial V3, Mean / Stroop Word Trial V3, Mean: Visit 3
Excerpt: Study participants were screened by telephone prior to study enrollment. Healthy subjects, ages 13-18, with no significant medical conditions and no history of co-morbid psychiatric disorder, current Axis I or II diagnosis, or previous participation in a pharmacotherapeutic trial, were selected. Use of any psychotropic medication or any previous head injury resulting in loss of consciousness for 5 or more minutes were used as exclusion criteria. While no participant met criteria for a neuropsychiatric disorder at enrollment, clinical assessments were still completed throughout the study to evaluate changes in mood state. In addition, self-reports of sleep habits, lifestyle, and exercise routines were also administered at baseline as well as at each study visit to assess changes in health habits during study participation. Following the completion of Visit 1 assessment, participants were given their 28-day supply of citicoline (250 mg or 500 mg) or placebo, which was randomly assigned. They were instructed to take one capsule a day every day for the next 28 days. Visit 2 occurred fourteen days after Visit 1. At Visit 2, the remaining study pills were counted and participant dosage calendars were checked to ensure compliance with the protocol. Additional neuropsychological measures and clinical assessments were administered during this visit. Participants returned for Visit 3 fourteen days later, on the 28th day of their study participation. The pill bottle and the dosage calendar were collected from each participant. Urine and blood were again obtained. Participants also participated in similar clinical and neuropsychological testing and clinical measures that were given during visit 1. The Stroop measures the ability to inhibit incorrect responses and to resist interference. The three conditions, Color Naming, Word Reading, and Interference, are designed to establish competing response tendencies. Outcome variables include time to complete each condition, as well as total errors per condition. The Stroop test was administered at each of the three visits.

C[N+](C)(C)CCOP(=O)(O)OP(=O)([O-])OC[C@H]1O[C@@H](n2ccc(N)nc2=O)[C@H](O)[C@@H]1O [citicoline, Cytidine 5′-diphosphocholine]
CVLT I & II List A Long Delay V1, Mean ([1]; 250 mg/day group): 10.26 | CVLT I & II List A Short Delay V1, Mean ([1]; 250 mg/day group): 10.56 | CVLT I & II List A Trial 1 V1, Mean ([1]; 250 mg/day group): 6.11 | CVLT I & II List A Trial 5 V1, Mean ([1]; 250 mg/day group): 12.33 | CVLT I & II List A Trials 1-5 V1, Mean ([1]; 250 mg/day group): 50.52 | CVLT I & II List B V1, Mean ([1]; 250 mg/day group): 5.78 | V3-V1 CVLT I & II Difference List A Long Delay, Mean ([1]; 250 mg/day group): 0.81 | V3-V1 CVLT I & II Difference List A Short Delay, Mean ([1]; 250 mg/day group): 1.04 | V3-V1 CVLT I & II Difference List A Trial 1, Mean ([1]; 250 mg/day group): 1.63 | V3-V1 CVLT I & II Difference List A Trial 5, Mean ([1]; 250 mg/day group): 0.52 | V3-V1 CVLT I & II Difference List A Trials 1-5, Mean ([1]; 250 mg/day group): 3.11 | V3-V1 CVLT I & II Difference List B Trial 1, Mean ([1]; 250 mg/day group): 0.48 | CVLT I & II List A Long Delay V3, Mean ([1]; 250 mg/day group): 11.07 | CVLT I & II List A Short Delay V3, Mean ([1]; 250 mg/day group): 11.59 | CVLT I & II List A Trial 1 V3, Mean ([1]; 250 mg/day group): 7.74 | CVLT I & II List A Trial 5 V3, Mean ([1]; 250 mg/day group): 12.85 | CVLT I & II List A Trials 1-5 V3, Mean ([1]; 250 mg/day group): 53.63 | CVLT I & II List B V3, Mean ([1]; 250 mg/day group): 6.26 | CVLT I & II List A Long Delay V1, Mean ([1]; 500 mg/day group): 9.79 | CVLT I & II List A Short Delay V1, Mean ([1]; 500 mg/day group): 10.25 | CVLT I & II List A Trial 1 V1, Mean ([1]; 500 mg/day group): 6.58 | CVLT I & II List A Trial 5 V1, Mean ([1]; 500 mg/day group): 11.83 | CVLT I & II List A Trials 1-5 V1, Mean ([1]; 500 mg/day group): 49.04 | CVLT I & II List B V1, Mean ([1]; 500 mg/day group): 6.67 | V3-V1 CVLT I & II Difference List A Long Delay, Mean ([1]; 500 mg/day group): 1.13 | V3-V1 CVLT I & II Difference List A Short Delay, Mean ([1]; 500 mg/day group): 0.96 | V3-V1 CVLT I & II Difference List A Trial 1, Mean ([1]; 500 mg/day group): 1.00 | V3-V1 CVLT I & II Difference List A Trial 5, Mean ([1]; 500 mg/day group): 0.88 | V3-V1 CVLT I & II Difference List A Trials 1-5, Mean ([1]; 500 mg/day group): 3.75 | V3-V1 CVLT I & II Difference List B Trial 1, Mean ([1]; 500 mg/day group): -0.33 | CVLT I & II List A Long Delay V3, Mean ([1]; 500 mg/day group): 10.92 | CVLT I & II List A Short Delay V3, Mean ([1]; 500 mg/day group): 11.21 | CVLT I & II List A Trial 1 V3, Mean ([1]; 500 mg/day group): 7.58 | CVLT I & II List A Trial 5 V3, Mean ([1]; 500 mg/day group): 12.71 | CVLT I & II List A Trials 1-5 V3, Mean ([1]; 500 mg/day group): 52.79 | CVLT I & II List B V3, Mean ([1]; 500 mg/day group): 6.33 | Stroop Color Trial V1, Mean ([2]; 250 mg/day group): 61.05 | Stroop Difference V1, Mean ([2]; 250 mg/day group): 43.53 | Stroop Interference Trial V1, Mean ([2]; 250 mg/day group): 91.85 | Stroop Word Trial V1, Mean ([2]; 250 mg/day group): 48.32 | V3-V1 Stroop Color Trial, Mean ([2]; 250 mg/day group): -7.71 | V3-V1 Stroop Difference, Mean ([2]; 250 mg/day group): -17.53 | V3-V1 Stroop Interference Trial, Mean ([2]; 250 mg/day group): -19.03 | V3-V1 Stroop Word Trial, Mean ([2]; 250 mg/day group): -1.98 | Stroop Color Trial V3, Mean ([2]; 250 mg/day group): 53.34 and 53.35 | Stroop Difference V3, Mean ([2]; 250 mg/day group): 26.00 | Stroop Interference Trial V3, Mean ([2]; 250 mg/day group): 72.82 | Stroop Word Trial V3, Mean ([2]; 250 mg/day group): 46.34 | Stroop Color Trial V1, Mean ([2]; 500 mg/day group): 60.12 | Stroop Difference V1, Mean ([2]; 500 mg/day group): 44.93 | Stroop Interference Trial V1, Mean ([2]; 500 mg/day group): 91.62 | Stroop Word Trial V1, Mean ([2]; 500 mg/day group): 46.69 | V3-V1 Stroop Color Trial, Mean ([2]; 500 mg/day group): -5.77 | V3-V1 Stroop Difference, Mean ([2]; 500 mg/day group): -15.55 | V3-V1 Stroop Interference Trial, Mean ([2]; 500 mg/day group): -16.95 | V3-V1 Stroop Word Trial, Mean ([2]; 500 mg/day group): -1.40 | Stroop Color Trial V3, Mean ([2]; 500 mg/day group): 54.35 | Stroop Difference V3, Mean ([2]; 500 mg/day group): 29.38 | Stroop Interference Trial V3, Mean ([2]; 500 mg/day group): 74.68 | Stroop Word Trial V3, Mean ([2]; 500 mg/day group): 45.30
